Data set [1] deals with HCoV-OC43. In kind it is cell-based.
Data set [2] relates to HCoV-OC43. Kind of data set: Viral release (intracellular versus supernatant viral RNA). Type of data set: cell-based. The method, then: To obtain further insight into the stage at which DBM inhibits the replication of HCoV-OC43 and other HCoVs, RD cells were incubated with compounds, including DBM, remdesivir (RDV), and chloroquine (CQ), at different stages of viral infection. Viral RNA from the supernatant was extracted and quantitatively analysed via qRT-PCR. […] For the viral binding assay, cells were cultured in the presence or absence of DBM at different concentrations for 1 hour before being infected with HCoV-OC43 at an MOI of 50, and then were placed on ice for 2 hours for the viral particles to bind to the membrane of the host cells, followed by washing with PBS. […] To determine whether DBM influences viral release, we quantified viral RNA both intracellularly and in the supernatant.
A) Efficacy of DBM, remdesivir (RDV), and chloroquine (CQ) in inhibiting virus replication at different stages of administration. […] C) Fluorescence images of cell-cell fusion induced by the transient expression of HCoV-OC43 spike proteins and eGFP (green) in RD cells. […] D) Confocal fluorescence microscopy images showing HCoV-OC43 internalization. E) Quantification of intracellular viral particles per cell, based on images obtained from confocal fluorescence microscopy. […] Data were statistically analysed with Student’s T test. *: p ≤ 0.05, **: p ≤ 0.01, ***: p ≤ 0.001, ****: p ≤ 0.0001; ns, not significant. […]

Another data set deals with HCoV-OC43 spike protein. The data set can be described thus: Cell-cell fusion assay (HCoV-OC43 spike). In kind it is cell-based. The note with it: spike-transfected 293T cells with RD cells. The method, then:
To obtain further insight into the stage at which DBM inhibits the replication of HCoV-OC43 and other HCoVs, RD cells were incubated with compounds, including DBM, remdesivir (RDV), and chloroquine (CQ), at different stages of viral infection. Viral RNA from the supernatant was extracted and quantitatively analysed via qRT-PCR. […] For the viral binding assay, cells were cultured in the presence or absence of DBM at different concentrations for 1 hour before being infected with HCoV-OC43 at an MOI of 50, and then were placed on ice for 2 hours for the viral particles to bind to the membrane of the host cells, followed by washing with PBS. […] In addition to binding to receptors from host cells, the spike proteins of HCoV-OC43 could also trigger membrane fusion when HCoV-OC43 spike plasmid-transfected 293T cells were seeded together with RD cells as target cells, and the addition of DBM had no effect on this process (S5C Fig). To examine whether DBM inhibits viral internalisation, cells were inoculated with HCoV-OC43 for 1 hour on ice before being treated with either DBM or DMSO, and CQ was included to prevent endosomal acidification. […] To determine whether DBM influences viral release, we quantified viral RNA both intracellularly and in the supernatant. […]

Another data set deals with enterovirus EV71. In kind it is cell-based.
The next data set deals with HCoV-229E. Kind of data set: Antiviral activity in vitro, qRT-PCR, HCoV-229E in MRC-5 cells. The note with it: for HCoV-229E, MRC-5: inhibition at the concentration (Fig2B): replicates. Type of data set: cell-based. Background: Real-time PCR tracks product formation cycle by cycle.
For data set [3] the following is noted: 1% DBM in the diet, mice; cited from earlier work.
The subject of another data set is HCoV-NL63. The data set can be described thus: Antiviral activity in vitro, HCoV-NL63. Type of data set: cell-based. The note with it: Human coronavirus NL63, read-out: EC50 HCoV-NL63.
The subject of data set [4] is HCoV-OC43. The note with it: DBM 400 mpk QD.
Data set [5] is described as follows: Metabolic stability in human liver microsomes. Type of data set: in vitro ADME. The following applies: average, read-out: T1/2 of metabolism. The method, then: Thus, a pharmacokinetic study was performed for DBM in Sprague-Dawley (SD) rats. Following oral administration of menstruum or DBM at 200 mpk, blood samples from the rats were collected at 2 min, 5 min, 15 min, 30 min, 1 h, 2 h, 4 h, 8 h, and 24 h posttreatment. The concentration of DBM in the plasma was determined by liquid chromatography with tandem mass spectrometry (LC-MS/MS). The minimum effective concentration (MEC) line in the graph represents the EC95 value of DBM (Fig 3C). […] To analyse the metabolic stability of DBM, we incubated human and mouse liver microsomes with DBM. The T1/2 of metabolism was an average of 13.92 min in human liver microsomes and 4.84 min in mouse liver microsomes.
(Liver microsomes are vesicles of endoplasmic reticulum, rich in cytochrome P450 enzymes.)

The subject of another data set is caspase-6. In kind it is cell-based.

Values joined by “and” are separate entries in the source; they are usually repeats but may differ in a detail not shown here. Identical values can stand only once. Like-named read-outs stand apart in the source and are kept apart here.

Consider one compound from publication PMC12431657, “Discovery and mechanistic insights of dibenzoylmethane as a broad spectrum inhibitor of coronavirus” (PLOS Pathogens, 2025).

Broadly, the EC50 is the concentration needed to bring the measured effect to its halfway point. With `O=C(CC(=O)c1ccccc1)c1ccccc1` [DBM, dibenzoylmethane], in the data set on HCoV-OC43 [1] (RD cells), the “antiviral activity in CASP6 knockout cell pools” value was “decreased”. For the same compound, the “Viral inhibition (Fig5K)” value in the data set with HCoV-OC43 [1] (concentration 2, RD-CASP6 KO cells) was 35.0 and 37.4 and 35.2; in the data set with HCoV-OC43 [1] (concentration 2, RD-Scramble cells), 87.9 and 90.6 and 92.3; in the data set with HCoV-OC43 [1] (concentration 20, RD-Scramble cells), 81.0 and 81.9 and 83.3. In addition, the “proportion of viral RNAs released into the supernatant versus controls” value with HCoV-OC43 [2] is listed as “No significant difference”. Also, the “Proportion of release of HCoV-OC43 RNA” value with HCoV-OC43 [2] (DBM-treated samples, replicates) was 0.9 and 1.5 and 5.8. In addition, the spike-triggered membrane fusion result in the data set on HCoV-OC43 spike protein is “had no effect”. In addition, the “antiviral activity against EV71” value in the data set on enterovirus EV71 was “no antiviral activity”. Further, the EC50 came out at 0.7 µM in the data set with HCoV-229E (Human coronavirus 229E, MRC5, 24 h, read-out: EC50 HCoV-229E (MRC-5)) and 11.7 µM in the data set with HCoV-NL63. In addition, the “HCoV-229E, MRC-5: inhibition at the concentration (Fig2B)” value was 0.8 and 1.1 and 0.3 in the data set with HCoV-229E (conc. 0.1 (unit not given)); 1.4 and -2.2 and 0.6 in the data set with HCoV-229E (conc. 0.2 (unit not given)); 17.4 and 32.7 and 56.6 in the data set on HCoV-229E (conc. 0.7 (unit not given)); 69.7 and 42.7 and 53.8 in the data set on HCoV-229E (conc. 2.2 (unit not given)); 86.0 and 92.7 and 89.8 in the data set on HCoV-229E (conc. 6.7 (unit not given)); 94.3 and 95.3 and 95.9 in the data set with HCoV-229E (conc. 20.0 (unit not given)). In addition, the “safety of feeding in the diet” value in data set [3] is reported as “safe”. Also, the “body weight loss during the experiment” value in the data set with HCoV-OC43 [4] (VV116 25 mpk QD) is given as “did not show any body weight loss”. The “viral copy numbers in the brain, lungs, and kidneys compared with the vehicle group” value in the data set on HCoV-OC43 [4] (5 days post infection) is on record as “significantly fewer viral copy numbers”. Also, the “viral load in the brains lower than in the vehicle group” value in the data set with HCoV-OC43 [4] (Day 5) is on record as “approximately 6 logs”. Also, the half-life in data set [5] worked out at 13.9 min. Besides, the “Caspase-6/CASP6 level relative to DMSO (Fig5I)” value in the data set on caspase-6 is 75.9 and 67.7 and 60.2 and 63.8. Further, the “relative level of CASP6 mRNA” value in the data set with caspase-6 was “decreased”.
